{
  "source": "patent US20140130208A1",
  "about": "“METHODS AND MEANS TO PRODUCE ABIOTIC STRESS TOLERANT PLANTS” (VIB VZW, priority 2011, published 2014)",
  "key": {"ACC levels in shoots": {"system": "ACC levels in shoots", "test": "Quantification of ACC in shoots by CE-MS", "type": "in vivo, Arabidopsis thaliana", "procedure": "To find out whether differential transcripts reflect changes in hormone levels, we determined concentrations of the ethylene precursor ACC in complete shoots of 9-day-old plants transferred to mannitol. Already 1 h after stress onset, ACC levels were 30% higher in stressed than in control samples, although this was not significant, and by 10 h, the increase was more than 2-fold and significant (FIG. 7B). At the time of analysis, the shoot samples were mainly composed of expanding cells, reflecting the overall importance of ethylene signaling for the response of growing tissues to stress.\nFreeze-dried samples were dissolved in 500 μl of methanol, including two internal standard compounds (4 μM methionine sulfone used for compensation of the peak area after capillary electrophoresis-mass spectrometry (CE-MS) analysis and 0.2 μM D4-ACC for quantification of ACC. After addition of 500 μl of chloroform and 200 μl of water, the mixture was vortexed for 3 min and centrifuged at 20,400 g for 3 min at 4° C. The upper layer was evaporated for 30 min at 45° C. by a centrifugal concentrator and then separated into two layers. The upper layer (100-200 μl) was centrifugally filtered through a Millipore 5-kD cutoff filter at 9,100 g for 90 min. […] The final solution (10 μL) was used to quantify the contents of ACC by cation analysis using CE-MS. […]"}, "CDKA": {"system": "CDKA", "test": "CDKA activity assay on protein extracted from proliferating third leaves", "type": "in vivo, Arabidopsis thaliana", "conditions": "wild type; 10 and 24 h after transfer to 25 mM mannitol or 5 μM ACC", "procedure": "At 9 DAS, when the third leaf is fully proliferating, seedlings were transferred to plates containing control medium or medium supplemented with 25 mM mannitol (Sigma-Aldrich) or 5 μM ACC (Sigma-Aldrich) by gently lifting the nylon mesh with forceps. For the CDKA activity assay the transfer was done at 11 DAS; at this stage, the third leaf is still dividing and can be quickly harvested without the need for RNAlater solution (see below) that would inhibit CDKA activity. All transfers were performed 2-3 h into the day.\nTotal soluble protein was extracted from 50 leaves by adding extraction buffer (Van Leene et al., 2007) to ground samples, followed by two freeze-thaw steps and two centrifugation steps (20,817 g, 10 min, 4° C.), whereby the supernatant was collected each time. Equal amounts of total protein were incubated with p9^CKS1Hs-sepharose beads (De Veylder et al., 1997) and kinase assays were performed as described (De Veylder et al., 1997) with histone H1 as CDK substrate. To correct for the amount of CDKA protein purified by p9^CKS1Hs-sepharose beads, an aliquot of each sample was used for protein gel blot analysis with primary rabbit anti-PSTAIRE antibodies (Santa Cruz) (diluted 1:5000) and a secondary horseradish peroxidase-conjugated donkey anti-rabbit antibodies (GE-Healthcare) (diluted 1:10,000). Proteins were detected by chemiluminescence (Western Lightning Plus ECL, PerkinElmer Life Sciences). CDK activity and CDKA amount were quantified with ImageJ v1.41o. Control samples were arbitrarily set at 100%."}},
  "data": [
    {"smiles": "OC[C@@H](O)[C@@H](O)[C@H](O)[C@H](O)CO", "note": "[mannitol]", "values": [
      {"measurement": "increase of ACC levels in stressed versus control shoots", "setting": "ACC levels in shoots; 1 h after stress onset, not significant", "result": 30, "unit": "%"},
      {"measurement": "increase of ACC levels in stressed versus control shoots", "setting": "ACC levels in shoots; 10 h after stress onset, significant", "result": "more than 2 fold"},
      {"measurement": "CDKA activity", "setting": "CDKA", "result": "decreased as early as 10 h after stress onset and remained low at 24 h"}
    ]}
  ]
}
